Patent US11547681B2, “N-acylethanolamide derivatives and uses thereof” (ELIEM THERAPEUTICS, INC., priority 2016, dated 2023)
Where two headings read alike, the source gives them in different places. Each block holds one compound with its values, some of them ahead of it.

Columns and labels:
in vitro [1] = assay: in vitro
Method: (§1) The reaction mixture, minus cofactors, was prepared as described below. The test article was added into the reaction mixture at a final concentration of 1 μM. […] An aliquot of the reaction mixture (without cofactor cocktail) was equilibrated in a shaking water bath at 37° C. for 3 minutes. The reaction was initiated by the addition of cofactor cocktail, and the mixture was incubated in a shaking water bath at 37° C. Aliquots (100 μL) were withdrawn at 0, 10, 20, 30, and 60 minutes. All samples were immediately combined with 400 uL of icecold 50/50 acetonitrile/H2O containing 0.1% formic acid and internal standard to terminate the reaction. The samples were then mixed and centrifuged to precipitate proteins. Calibration standards were prepared in matched matrix. All samples and standards were assayed by LC-MS/MS using electrospray ionization for both the dosed prodrug I-9 and the expected drug (PEA). Analytical conditions are outlined in Appendix 4-1. The test article concentration at each time point was compared to the test article concentration at time 0 to determine the percent remaining at each time point. Half-lives were calculated using GraphPad software, fitting to single-phase exponential decay equation.
(§2) Reaction mixture, minus cofactors, was prepared as described below. Test article was added into the reaction mixture at a final concentration of 1 μM. […] An aliquot of the reaction mixture (without cofactor cocktail) was equilibrated in a shaking water bath at 37° C. for 3 minutes. The reaction was initiated by the addition of cofactor cocktail, and the mixture was incubated in a shaking water bath at 37° C. Aliquots (100 μL) were withdrawn at 0, 10, 20, 30, and 60 minutes. Test article samples were immediately combined with 300 μL of ice-cold acetonitrile containing 1% formic acid. Control samples were immediately combined with 400 μL of ice-cold 50/50 acetonitrile (ACN)/dH2O containing 0.1% formic acid and internal standard to terminate the reaction. Samples were then mixed and centrifuged to precipitate proteins. Calibration standards were prepared in matched matrix. Samples and standards were assayed by LC-MS/MS using electrospray ionization for both the dosed prodrug and the expected drug (PEA). Analytical conditions are outlined in Appendix 8-1. Test article concentration at each time point was compared to test article concentration at time 0 to determine the percent remaining at each time point. Halflives were calculated using GraphPad software, fitting to a single-phase exponential decay equation.
as §2, with “for 5” for “for 3”, “minutes. Reaction” for “minutes. The reaction”, “and” for “and the”, “both” for “both the”, “Appendix 10-1.” for “Appendix 8-1.”
(§3) Reaction mixture, minus cofactors, was prepared as described below.

in vitro [2] = assay: in vitro; remark: listed apart in the source
Method: as §1, §2
as §2, with “for 5” for “for 3”, “minutes. Reaction” for “minutes. The reaction”, “and” for “and the”, “both” for “both the”, “Appendix 10-1.” for “Appendix 8-1.”
as §3

in vitro [3] = conditions: s9
Method: Reaction mixture, minus cofactors, was prepared as described below. Test article was added into the reaction mixture at a final concentration of 1 μM. […] An aliquot of the reaction mixture (without cofactor cocktail) was equilibrated in a shaking water bath at 37° C. for 3 minutes. The reaction was initiated by the addition of cofactor cocktail (see below), and the mixture was then incubated in a shaking water bath at 37° C. Aliquots (100 μL) were withdrawn 0, 10, 20, 30 and 60 minutes. Test article samples were immediately combined with 300 μL of ice-cold acetonitrile containing 1% formic acid. Control samples were immediately combined with 400 μL of ice-cold 50/50 acetonitrile (ACN)/dH2O containing 0.1% formic acid and internal standard to terminate the reaction. Samples were then mixed and centrifuged to precipitate proteins. Calibration standards were prepared in matched matrix. Samples and standards were assayed by LC-MS/MS using electrospray ionization for both the dosed prodrug and the expected drug (PEA). Analytical conditions are outlined in Appendix 8-1. Test article concentration at each time point was compared to the test article concentration at time 0 to determine the percent remaining at each time point. Half-lives were calculated using GraphPad software, fitting to a single-phase exponential decay equation.
Reaction mixture, minus cofactors, was prepared as described below. Test article was added into the reaction mixture at a final concentration of 1 μM. […] An aliquot of the reaction mixture (without cofactor cocktail) was equilibrated in a shaking water bath at 37° C. for 5 minutes. Reaction was initiated by the addition of cofactor cocktail (see below), and mixture was then incubated in a shaking water bath at 37° C. Aliquots (100 μL) were withdrawn at 0, 10, 20, 30, and 60 minutes. Test article samples were immediately combined with 300 μL of ice-cold acetonitrile containing 1% formic acid. Control samples were immediately combined with 400 μL of ice-cold 50/50 acetonitrile (ACN)/dH2O containing 0.1% formic acid and internal standard to terminate the reaction. Samples were then mixed and centrifuged to precipitate proteins. Calibration standards were prepared in matched matrix. Samples and standards were assayed by LC-MS/MS using electrospray ionization for both dosed prodrug and expected drug (PEA). Analytical conditions are outlined in Appendix 10-1. Test article concentration at each time point was compared to test article concentration at time 0 to determine the percent remaining at each time point. Half-lives were calculated using GraphPad software, fitting to a single-phase exponential decay equation.
The reaction mixture, minus cofactors, was prepared as described below. Test article was added into the reaction mixture at a final concentration of 1 μM. […] An aliquot of the reaction mixture (without cofactor cocktail) was equilibrated in a shaking water bath at 37° C. for 3 minutes. Reaction was initiated by the addition of cofactor cocktail (see below), and the mixture was then incubated in a shaking water bath at 37° C. Aliquots (100 μL) were withdrawn at 0, 10, 20, 30, and 60 minutes. Test article samples were immediately combined with 300 μL of ice-cold acetonitrile containing 1% formic acid. Control samples were immediately combined with 400 μL of ice-cold 50/50 acetonitrile (ACN)/dH2O containing 0.1% formic acid and internal standard to terminate the reaction. Samples were then mixed and centrifuged to precipitate proteins. Calibration standards were prepared in matched matrix. Samples and standards were assayed by LC-MS/MS using electrospray ionization for both dosed prodrug and expected drug (PEA). Analytical conditions are outlined in Appendix 13-1. Test article concentration at each time point was compared to the test article concentration at time 0 to determine the percent remaining at each time point.

in vitro [4] = assay: in vitro; remark: listed apart in the source
Method: as §2
as §2, with “for 5” for “for 3”, “minutes. Reaction” for “minutes. The reaction”, “and” for “and the”, “both” for “both the”, “Appendix 10-1.” for “Appendix 8-1.”
(§4) Reaction mixture, minus cofactors, was prepared as described below. Test article was added into the reaction mixture at a final concentration of 1 μM. […] An aliquot of the reaction mixture (without cofactor cocktail) was equilibrated in a shaking water bath at 37° C. for 3 minutes. Reaction was initiated by the addition of cofactor cocktail, and the mixture was incubated in a shaking water bath at 37° C. Aliquots (100 μL) were withdrawn at 0, 10, 20, 30, and 60 minutes. Test article samples were immediately combined with 300 μL of ice-cold acetonitrile containing 1% formic acid. Control samples were immediately combined with 400 μL of ice-cold 50/50 acetonitrile (ACN)/dH2O containing 0.1% formic acid and internal standard to terminate the reaction. Samples were then mixed and centrifuged to precipitate proteins. Calibration standards were prepared in matched matrix. Samples and standards were assayed by LC-MS/MS using electrospray ionization for both dosed prodrug and expected drug (PEA). Analytical conditions are outlined in Appendix 13-1. Test article concentration at each time point was compared to test article concentration at time 0 to determine the percent remaining at each time point. Halflives were calculated using GraphPad software, fitting to a single-phase exponential decay equation.

in vitro [5] = assay: in vitro; remark: listed apart in the source
Method: as §2
as §4, with “for 5” for “for 3”, “and” for “and the”, “Appendix 10-1.” for “Appendix 13-1.”
as §4

[6] = male, Sprague-Dawley, rat, in vivo, po
Method: PEA was also dosed intravenously at 1 mg/kg. Blood samples were collected up to 8 hours post-dose, and PEA and PEA-prodrug plasma concentrations were determined with a qualified LC-MS/MS method. Pharmacokinetic analysis was conducted by a non-compartmental model using Phoenix WinNonlin v.6.4 software.
The IV dosing solution was prepared fresh on the day of dosing at 0.5 mg/mL in a vehicle comprised of 10% solutol HS15, 10% n-methylpyrrolidone (NMP), 10% polyethylene glycol 400 (PEG400), and 70% water. For PO dosing, torpac capsules were loaded with an appropriate amount of PEA, PEA-prodrug, or normast powder. […] The prodrug dose in group 5 was the maximum amount of powder that would fit into a single capsule.
The pharmacokinetics of PEA and the PEA-prodrug were evaluated in fasted male Sprague-Dawley rats. Rats were housed one per cage. Each rat was fitted with a jugular vein cannula (JVC) for blood collection. Rats intended for IV dosing were fitted with an additional JVC for dosing. Each study group was dosing in triplicate. Rats were fasted for a minimum of twelve hours prior to dosing. Food was returned at four hours post dosing. Animals had free access to water throughout the study.
Blood samples (˜300 μL) were collected from the rats via a JVC and placed into chilled polypropylene tubes containing sodium heparin as an anticoagulant, and 30 μL of 0.5 M citric acid. Samples were maintained chilled throughout processing. Blood samples were centrifuged at 4° C. and 3,000 g for 5 minutes. Plasma (˜150 μL) was then transferred to a chilled, labeled polypropylene tube containing 15 μL of 10% formic acid, placed on dry ice, and stored in a freezer maintained at −60° C. to −80° C.
Pharmacokinetic parameters were determined with Phoenix WinNonlin (v6.4) software using a non-compartmental model. Maximum plasma concentrations (C0) after IV dosing were estimated by extrapolation of the first two time points back to t=0. […] Area under the time concentration curve (AUC) was calculated using the linear trapezoidal rule with calculation to the last quantifiable data point, and with extrapolation to infinity if applicable. […] Mean residence time, MRT, was calculated by dividing the area under the moment curve (AUMC) by the AUC. Clearance (CL) was calculated from dose/AUC. Steady-state volume of distribution (Vss) was calculated from CL*MRT (mean residence time). Bioavailability was determined by dividing the individual PO dose normalized AUClast values by the average IV AUClast value. Any samples below the limit of quantitation were treated as zero for pharmacokinetic data analysis.
Measured concentrations of PEA in plasma samples were corrected by subtracting the concentration of PEA measured in the pre-dose samples. […] Any corrected values that were negative are reported as not determined (ND).

[7] = Summary of half life data (Table A), matrix not stated; type: in vitro ADME
[8] = Simulated intestinal fluid stability, SIF containing pancreatin; type: in vitro ADME; conditions: for % Remaining of Initial (n = 1): 1 μM; for Measured Concentration of Drug: test article dosed at 1 μM
Method: (§5) Studies were carried out in simulated intestinal fluid containing pancreatin. Simulated intestinal fluid was prepared by dissolving 6.8 g of monobasic potassium phosphate in 1.0 L of water. Pancreatin was then added to the solution and the pH was adjusted to 6.8. A DMSO stock was first prepared for the test articles. Aliquots of the DMSO solution were dosed into 300 μL of matrix, which had been pre-warmed to 37° C., at a final test article concentration of 1 μM. An individual tube was dosed for each time point. At each time point (0, 15, 30, 60, and 120 minutes), 900 μL of ice-cold acetonitrile containing 1.0% formic acid was added to an individual tube. Starting time for each tube was staggered such that all timepoints would finish at the same time. After the conclusion of the experiment, tubes were mixed and then centrifuged at 3,000 rpm for 10 minutes. Calibration standards were prepared in matched matrix. […] Analytical conditions are outlined in Appendix 11-1.
as §5, with “prepared for test articles.” for “prepared for the test articles.”, “Aliquots of DMSO solution” for “Aliquots of the DMSO solution”, “individual tube. The starting time for” for “individual tube. Starting time for”, “that all time points would finish” for “that all timepoints would finish”, “in Appendix 14-1.” for “in Appendix 11-1.”

[9] = test system: patients with distal ulcerative colitis; conditions: cited from earlier work

Structure (SMILES): O=c1ccc2ccc(O)cc2o1 [Compound 7-HC, 7-hydroxycoumarin, reference compound]
microsomal CLint (in vitro [1]; male, Sprague-Dawley, rat, s9, Clint, control compound): 20.1 µL/min/mg
half-life (in vitro [1]; male, Sprague-Dawley, rat, s9, Half-life, control compound): 34 min
microsomal CLint (in vitro [2]; both, human, s9, Clint, control compound): 943 µL/min/mg
half-life (in vitro [2]; both, human, s9, Half-life (min)): 13 min
half-life (in vitro [2]; both, human, s9, Half-life, control compound): 7.3 min

Structure (SMILES): O=c1ccc2ccc(O)cc2o1 [Compound 7-hydroxycourmann]
CLint (in vitro [3]; dog): 0.512 ml/min/mg protein
Half-life (in vitro [3]; dog): 1.4 min
CLint (in vitro [3]; human): 0.0472 ml/min/mg protein
Half-life (in vitro [3]; human): 15 min
CLint (in vitro [3]; mouse): 0.313 ml/min/mg protein
Half-life (in vitro [3]; mouse): 2.2 min
CLint (in vitro [3]; rat): 0.362 ml/min/mg protein
Half-life (in vitro [3]; rat): 1.9 min

Structure (SMILES): O=c1ccc2ccc(O)cc2o1 [Compound 7-hydroxycourmarin]
CLin (in vitro [1]): 0.0242 ml/min/mg protein
CLint (in vitro [1]; rat, s9): 0.0320 ml/min/mg protein
CLin (in vitro [2]): 0.0522 ml/min/mg protein
CLint (in vitro [2]; human, s9): 0.0698 ml/min/mg protein
CLin (in vitro [4]): 0.0770 ml/min/mg protein
CLint (in vitro [4]; dog, s9): 0.0799 ml/min/mg protein
CLin (in vitro [5]): 0.138 ml/min/mg protein
CLint (in vitro [5]; mouse, s9): 0.160 ml/min/mg protein

Structure (SMILES): CCCC(=O)[O-].[Na+] [sodium butyrate]
discharge of blood ceased ([9]; after butyrate irrigation): 9 of 10
overall crypt proliferation ([9]; after butyrate irrigation): unchanged
upper crypt-labeling index after butyrate irrigation ([9]; before 0.086±0.019): 0.032±0.003
histological degree of inflammation after butyrate irrigation ([9]; before 2.4±0.3): 1.5±0.3
endoscopic score after butyrate irrigation ([9]; before 6.5±0.4): 3.8±0.8
stool frequency after butyrate irrigation ([9]; sodium butyrate 100 mmol/L enemas 2 weeks, 10 patients, before 4.7±0.5): 2.1±0.4 n/day

Now from value to compound:

Bioavailability [6]: 4.39%
Dose-normalized AUC∞ (PEA) [6]: 4.81 kg·ng·h/mL/mg
half-life [7]: 7.5 min
% Remaining of Initial (n = 1) ([8]; 0 min): 100%
Measured Concentration of Drug ([8]; 0 min): 0.19 µM
% Remaining of Initial (n = 1) ([8]; 15 min): 25%
Measured Concentration of Drug ([8]; 15 min): 0.047 µM
% Remaining of Initial (n = 1) ([8]; 30 min): <2.2%
Measured Concentration of Drug ([8]; 30 min): 0 µM
% Remaining of Initial (n = 1) ([8]; 60 min): <2.2%
Measured Concentration of Drug ([8]; 60 min): 0 µM
% Remaining of Initial (n = 1) ([8]; 120 min): <2.2%
Measured Concentration of Drug ([8]; 120 min): 0 µM
half-life at 1 μM ([8]; simulated intestinal fluid containing pancreatin, pH 6.8, 1 μM): 7.6 min
Structure (SMILES): CCCCCCCCCCCCCCCC(=O)NCCOC(=O)CCC(=O)OC[C@H](COC(=O)CCC)OC(=O)CCC [Compound I-14]

Bioavailability [6]: 3.42%
half-life [7]: < 1 min
% Remaining of Initial (n = 1) ([8]; 0 min): 100%
Measured Concentration of Drug ([8]; 0 min): 0.18 µM
% Remaining of Initial (n = 1) ([8]; 15 min): <2.2%
Measured Concentration of Drug ([8]; 15 min): 0 µM
% Remaining of Initial (n = 1) ([8]; 30 min): <2.2%
Measured Concentration of Drug ([8]; 30 min): 0 µM
% Remaining of Initial (n = 1) ([8]; 60 min): <2.2%
Measured Concentration of Drug ([8]; 60 min): 0 µM
% Remaining of Initial (n = 1) ([8]; 120 min): <2.2%
Measured Concentration of Drug ([8]; 120 min): 0 µM
Structure (SMILES): CCCCCCCCCCCCCCCC(=O)NCCOC(=O)CCC(=O)OC[C@@H](COC(=O)CCC)OC(=O)CCC [Compound I-15]
